The test system of series [1] is rabbit pupil. As to the kind of experiment: Miosis effect of 0.915% compound solutions in rabbits (Test Example 4). Type of series: in vivo. The note with it: at half of the concentration of the pilocarpine hydrochloride. As to the method:
Each rabbit in each group was subjected to single eye drop administration in the left eye, with an administration volume of 100 μL. The pupil and iris diameters of the left eye of the rabbits were measured at time points of −0.5 h (i.e., half an hour before administration), 0.5 h, 3 h, and 4 h relative to administration (observation time points were extended if necessary), with the measurement performed 5 times for each rabbit at each time point. The entire measurement process was completed by the same person.
• Reagents: normal saline (specification: 500 mL: 4.5 g), purchased from Jiangxi Kelun Pharmaceutical Co., Ltd.; • compound 1 and compound 2 (from Nanjing Jiqun Pharmaceutical Technology Co., Ltd.); • 1) a compound 1 solution at a concentration of 0.915% prepared using normal saline; • 2) a compound 2 solution at a concentration of 0.915% prepared using normal saline.
The miosis effects of the 0.915% compound 1 solution and the 0.915% compound 2 solution were determined using the method in Test Example 2, and the determination results are shown in Tables 4-1 and 4-2 below.

The nature of series [2]: Stability tests on compound starting materials (HPLC related substances). The note with it: for (Z-A) impurity A isopilocarpine / (Z-B) impurity B pilocarpic acid / (Z-C) impurity C isopilocarpic acid / Maximum single impurity / Total impurity: starting material. Type of series: physicochemical. The protocol:
Samples: compound 1, compound 2 and pilocarpine hydrochloride starting material solid particles.
High-temperature test: 1 g of each of compound 1, compound 2 and pilocarpine hydrochloride starting materials were taken and placed in an open container inside a constant temperature device at 40° C.; samples were taken at time points of day 0 and day 5, and then tested according to the key stability examination items. The stability of the active pharmaceutical ingredient itself and the trend of changes in stability under the conditions of influencing factor tests were observed.
Strong light irradiation test: 1 g of each of compound 1, compound 2 and pilocarpine hydrochloride starting materials were taken and placed in an open container inside a light irradiation box, with the illumination set at 4500 lx±500 lx; samples were taken at time points of day 0 and day 5, and then tested according to the key stability examination items.
High-humidity test: 1 g of each of compound 1, compound 2 and pilocarpine hydrochloride starting materials was taken and placed in an open container inside a constant humidity closed container at 25° C. and with a relative humidity of 75%±5%; samples were taken at day 0 and day 5, and then tested according to the requirements of the key stability examination items.
According to the records in the European Pharmacopoeia (EP), the key related substances to be examined for pilocarpine include: impurity A isopilocarpine (Z-A), impurity B pilocarpic acid (Z-B), and impurity C isopilocarpic acid (Z-C). The samples taken at different time points from the above high-temperature test, strong light irradiation test and high-humidity test were separately tested using high-performance liquid chromatography to observe the trend of changes in stability under the conditions of the influencing factor tests.
The related substances were determined according to the high-performance liquid chromatography (General Chapter 0512, Chinese Pharmacopoeia, Volume IV, 2020 Edition).
Test sample solution: an appropriate amount of each test sample was precisely weighed, dissolved in water, and diluted to prepare a solution containing 1 mg of test sample per 1 mL.
Chromatographic conditions: octadecyl bonded silica gel was used as a filler [kromasil 100-5-C18 column (4.0 mm×[…]) or a chromatographic column with equivalent performance], 0.679 g/L tetrabutylammonium dihydrogen phosphate-methanol-acetonitrile (885:55:60) (adjusted to pH 7.7 with dilute aqueous ammonia) was used as mobile phase A, and acetonitrile-water (80:20) was used as mobile phase B; gradient elution was performed according to Table 6-1, with a column temperature of 30° C., a flow rate of 1.0 mL/min, a detection wavelength of 220 nm, and a sample injection volume of 20 μL.

Series [3] deals with rabbit pupil. Put plainly: Rabbit pupil constriction after single eye drop (Test Example 1). Type of series: in vivo, New Zealand rabbit. The conditions noted are these: rabbits, Test Example 1 solutions. The protocol:
Except for group 5), the eye drop solutions of groups 1) to 12) described above contained an equimolar concentration of pilocarpine. The molar concentration of pilocarpine in the eye drop solution of group 5) was half of the molar concentration of pilocarpine in the solutions of the other 11 groups.
The effects of the eye drop solutions of groups 1) to 12) prepared above on rabbit pupil constriction and irritation were tested separately.
• Species and strain: New Zealand rabbit • Grade: normal • Source: Qinglongshan Animal Breeding Farm, Jiangning District, Nanjing • Production license No.: SCXK (Su) 2016-0008 • Animal age: about 110 days old at the time of administration • Animal body weight: about 2.5-3.5 kg at the time of administration • Animal sex: all male • Feed: rabbit pellet feed • Housing conditions: air-conditioned room, with a temperature of 18-26° C. and a relative humidity of 40%-80%.
• Digital vernier caliper: specification: 0-150 mm; measurement accuracy: 0.01 mm; manufacturer: Guilin Guanglu Measuring Instrument Co., Ltd.
Each rabbit was subjected to eye drop administration in the left eye (using a pipette), with an administration volume of 100 μL.
• Number of animals: for JQ series compounds, 6 rabbits per compound; for compounds 1, 2 and 4, 5 rabbits per compound. • Administration schedule: single administration. Measurement indicators and time points: • for JQ series compounds, the pupil diameter of the left eye of the rabbits was measured at time points of −0.5 h (i.e., half an hour before administration), 5 min, 10 min, 15 min, 0.5 h, 3 h and 4 h relative to administration, with the measurement repeated 3 times for each rabbit at each time point (measurement time points were extended if necessary); • for compounds 1, 2 and 4, the pupil diameter of the left eye of the rabbits was measured at time points of 3 h and 4 h relative to administration, with the measurement repeated 3 times for each rabbit at each time point (measurement time points were extended if necessary).
Percentage change in pupil diameter (%) after administration=(pupil diameter after administration−pupil diameter before administration)/pupil diameter before administration×100%
The measurement result for each rabbit at each time point was represented by the average value of three measurements.

The mark [4] stands for this setting: 40° C. and high light irradiation.

SMILES strings stand for the structures.

With `CC[C@@H]1C(=O)OC[C@@H]1Cc1cncn1C` [Compound 1], in the series on rabbit pupil [1], the “miosis effect compared to pilocarpine hydrochloride” value was “comparable to the effect of pilocarpine hydrochloride”. Further, the “impurity increasing rate compared to pilocarpine hydrochloride starting material” value (from here on “impurity increasing rate”) in series [2] (setting [4]) is listed as “comparable to those of the pilocarpine hydrochloride starting material”; in series [2] (5 days, high humidity (RH 75%)) it was “significantly slower than those of the pilocarpine hydrochloride”. Moreover, the “(Z-A) impurity A isopilocarpine” value in series [2] (40° C.-5 days) came to 0.365%; in series [2] (Day 0), 0.328%; in series [2] (Light-5 days (4500 lx)), 0.329%; in series [2] (RH 75%-5 days, 25° C.), 0.310%. Besides, the “(Z-B) impurity B pilocarpic acid” value in series [2] (40° C.-5 days) is 0%; in series [2] (Day 0) it was 0%; in series [2] (Light-5 days (4500 lx)) it was 0%; in series [2] (RH 75%-5 days, 25° C.) it was 0%. Further, the “(Z-C) impurity C isopilocarpic acid” value in series [2] (40° C.-5 days) is on record as 0%; in series [2] (Day 0), 0%; in series [2] (Light-5 days (4500 lx)), 0%; in series [2] (RH 75%-5 days, 25° C.), 0%. For the same compound, the Maximum single impurity in series [2] (40° C.-5 days) turned out to be 0%; in series [2] (Day 0), 0%; in series [2] (Light-5 days (4500 lx)) it was 0%; in series [2] (RH 75%-5 days, 25° C.), 0%. For the same compound, the Total impurity stood at 0.365% in series [2] (40° C.-5 days); 0.328% in series [2] (Day 0); 0.329% in series [2] (Light-5 days (4500 lx)); 0.331% in series [2] (RH 75%-5 days, 25° C.). Also, the “pupil constriction (miosis) effect at 3 h after administration” value with rabbit pupil [3] was “still showed miosis effect”.

As to `CC[C@@H]1C(=O)OC[C@@H]1Cc1cncn1C` [Compound 2], in the series with rabbit pupil [1], the “miosis effect compared to pilocarpine hydrochloride” value is reported as “comparable to the effect of pilocarpine hydrochloride”. Moreover, the “impurity increasing rate” value in series [2] (setting [4]) was “comparable to those of the pilocarpine hydrochloride starting material”. The “impurity increasing rate” value in series [2] (5 days, high humidity (RH 75%)) was “significantly slower than those of the pilocarpine hydrochloride”. Besides, in series [2] (40° C.-5 days), the “(Z-A) impurity A isopilocarpine” value is 0.338%, the “(Z-B) impurity B pilocarpic acid” value was 0.072%, the “(Z-C) impurity C isopilocarpic acid” value is 0% and the Maximum single impurity was determined as 0%. This compound showed a Total impurity in series [2] (40° C.-5 days) of 0.353%. Further, in series [2] (Day 0), the “(Z-A) impurity A isopilocarpine” value was 0.307%, the “(Z-B) impurity B pilocarpic acid” value was 0%, the “(Z-C) impurity C isopilocarpic acid” value is recorded as 0% and the Maximum single impurity was found to be 0%. Moreover, the Total impurity in series [2] (Day 0) stood at 0.307%. Moreover, in series [2] (Light-5 days (4500 lx)), the “(Z-A) impurity A isopilocarpine” value amounted to 0.333%, the “(Z-B) impurity B pilocarpic acid” value was 0.046%, the “(Z-C) impurity C isopilocarpic acid” value turned out to be 0% and the Maximum single impurity was determined as 0%. Further, the Total impurity in series [2] (Light-5 days (4500 lx)) was 0.339%. Also, in series [2] (RH 75%-5 days, 25° C.), the “(Z-A) impurity A isopilocarpine” value came to 0.311%, the “(Z-B) impurity B pilocarpic acid” value is given as 0.116%, the “(Z-C) impurity C isopilocarpic acid” value was 0% and the Maximum single impurity was determined as 0%. For the same compound, the Total impurity in series [2] (RH 75%-5 days, 25° C.) came to 0.427%. The “pupil constriction (miosis) effect at 3 h after administration” value in the series on rabbit pupil [3] is recorded as “still showed miosis effect”.

The record behind these values is patent US20250154135A1, “M-CHOLINE RECEPTOR AGONIST COMPOUND, PREPARATION METHOD THEREFOR AND USE THEREOF” (NANJING GRITPHARMA CO., LTD., priority 2022, published 2025).
